In US11654199B2 (BOLT BIOTHERAPEUTICS, INC., priority 2019, dated 2023) one finds EC50 data, which are given here for 20 molecules.

One assay has as its target T1, human TLR7 (Homo sapiens, UniProt Q9NYK1).
T1 construct: host or cells: HEK293 reporter cells
T1 sequence (Q9NYK1 27-1049): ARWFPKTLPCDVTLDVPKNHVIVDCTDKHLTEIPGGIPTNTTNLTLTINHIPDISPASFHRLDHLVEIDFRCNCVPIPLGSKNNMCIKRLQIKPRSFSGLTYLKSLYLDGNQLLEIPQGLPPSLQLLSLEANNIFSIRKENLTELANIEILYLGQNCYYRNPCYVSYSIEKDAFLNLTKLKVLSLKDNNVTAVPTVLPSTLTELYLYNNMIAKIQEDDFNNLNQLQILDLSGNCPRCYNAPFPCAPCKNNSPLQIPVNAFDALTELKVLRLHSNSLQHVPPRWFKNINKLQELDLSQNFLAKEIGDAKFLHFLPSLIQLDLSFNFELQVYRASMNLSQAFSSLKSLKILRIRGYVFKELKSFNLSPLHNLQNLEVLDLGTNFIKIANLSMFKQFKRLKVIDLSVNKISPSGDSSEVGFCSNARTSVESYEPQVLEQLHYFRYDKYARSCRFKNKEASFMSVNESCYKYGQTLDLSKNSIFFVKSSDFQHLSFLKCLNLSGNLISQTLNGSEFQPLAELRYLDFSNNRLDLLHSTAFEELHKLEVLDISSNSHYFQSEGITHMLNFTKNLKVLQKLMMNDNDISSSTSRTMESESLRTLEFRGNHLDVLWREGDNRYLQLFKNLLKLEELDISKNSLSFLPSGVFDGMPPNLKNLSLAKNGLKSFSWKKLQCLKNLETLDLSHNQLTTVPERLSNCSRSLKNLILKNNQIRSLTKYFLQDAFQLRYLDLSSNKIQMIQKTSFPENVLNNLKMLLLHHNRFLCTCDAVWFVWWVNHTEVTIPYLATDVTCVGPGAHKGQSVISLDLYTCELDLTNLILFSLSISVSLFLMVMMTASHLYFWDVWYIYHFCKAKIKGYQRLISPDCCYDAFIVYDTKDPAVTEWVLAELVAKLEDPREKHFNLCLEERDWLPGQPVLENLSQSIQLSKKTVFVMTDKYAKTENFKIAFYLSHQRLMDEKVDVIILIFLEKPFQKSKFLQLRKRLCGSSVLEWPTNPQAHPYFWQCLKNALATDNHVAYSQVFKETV
Briefly: HEK293 NFKB reporter assay, human TLR7. The note with it: HEK293 NFKB reporter cells expressing human TLR7; read-out: HEK293 hTLR7 EC50. The class given is cell-based. As for the experimental part: (§1) Each compound was synthesized, purified, and characterized by mass spectrometry and shown to have the mass indicated. Additional experimental procedures are found in the Examples. Activity against HEK293 NFKB reporter cells expressing human TLR7 or human TLR8 was measured according to Example 202.
(§2) HEK293 reporter cells expressing human TLR7 or human TLR8 were purchased from Invivogen and vendor protocols were followed for cellular propagation and experimentation. Briefly, cells were grown to 80-85% confluence at 5% CO2 in DMEM supplemented with 10% FBS, Zeocin, and Blasticidin. Cells were then seeded in 96-well flat plates at 4×10^4 cells/well with substrate containing HEK detection medium and immunostimulatory molecules. Activity was measured using a plate reader at 620-655 nm wavelength.

In the next assay the target is T2, human TLR8 (Homo sapiens, UniProt Q9NR97).
T2 construct: host or cells: HEK293 reporter cells
T2 sequence (Q9NR97 27-1041): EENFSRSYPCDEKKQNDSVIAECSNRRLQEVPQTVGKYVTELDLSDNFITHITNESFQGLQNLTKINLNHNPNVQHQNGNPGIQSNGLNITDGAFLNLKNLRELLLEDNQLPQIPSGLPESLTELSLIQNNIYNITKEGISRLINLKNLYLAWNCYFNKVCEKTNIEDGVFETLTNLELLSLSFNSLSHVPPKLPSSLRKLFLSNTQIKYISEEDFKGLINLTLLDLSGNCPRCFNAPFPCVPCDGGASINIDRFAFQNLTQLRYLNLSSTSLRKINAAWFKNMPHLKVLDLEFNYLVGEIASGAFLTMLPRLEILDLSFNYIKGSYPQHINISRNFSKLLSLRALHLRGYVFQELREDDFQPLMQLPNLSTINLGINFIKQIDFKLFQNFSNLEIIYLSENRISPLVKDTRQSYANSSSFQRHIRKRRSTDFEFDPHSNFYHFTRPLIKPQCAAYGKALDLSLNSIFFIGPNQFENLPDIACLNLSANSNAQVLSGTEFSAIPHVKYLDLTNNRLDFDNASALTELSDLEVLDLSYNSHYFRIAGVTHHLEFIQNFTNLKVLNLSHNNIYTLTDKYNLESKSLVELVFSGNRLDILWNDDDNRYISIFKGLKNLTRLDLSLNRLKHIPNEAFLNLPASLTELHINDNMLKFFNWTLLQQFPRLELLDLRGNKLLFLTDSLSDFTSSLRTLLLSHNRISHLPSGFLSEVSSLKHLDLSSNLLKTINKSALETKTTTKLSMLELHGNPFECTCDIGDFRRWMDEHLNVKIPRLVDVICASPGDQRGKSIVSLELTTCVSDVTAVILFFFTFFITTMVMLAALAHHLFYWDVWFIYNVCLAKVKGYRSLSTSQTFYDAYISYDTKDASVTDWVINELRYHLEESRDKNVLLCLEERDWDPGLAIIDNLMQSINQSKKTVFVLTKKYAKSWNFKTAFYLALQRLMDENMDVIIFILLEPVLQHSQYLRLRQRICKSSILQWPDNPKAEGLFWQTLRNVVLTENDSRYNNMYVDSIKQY
Briefly: HEK293 NFKB reporter assay, human TLR8. The class given is cell-based. The following applies: HEK293 NFKB reporter cells expressing human TLR8; read-out: HEK293 hTLR8 EC50. As for the experimental part: as §1, §2

A word on the EC50: it is the concentration at which the effect is half-maximal.

`CCCN(CCCNC(=O)OC1CCC1)C(=O)C1=Cc2sc(CC3CN(C(=O)OC(C)(C)C)C3)cc2N=C(N)C1` [TAZ-182]: the values for the EC50 on human TLR7 and at human TLR8 were 101 nM and 840 nM, respectively.

With `CCCN(CCC)C(=O)C1=Cc2sc(CN3CCN(C)CC3)cc2N=C(N)C1` [TAZ-129], the half-maximal effective concentration (EC50) on human TLR7 came out at 5570 nM; at human TLR8, 848 nM.

As for `CCCN(C[C@H]1C[C@@H](CN)C1)C(=O)C1=Cc2sccc2N=C(N)C1` [TAZ-49], the EC50 on human TLR7 and on human TLR8 was greater than 9000 nM each time.

`CCCN(OCC)C(=O)C1=Cc2sc(CCC3CCNCC3)cc2N=C(N)C1` [TAZ-176, 5-amino-N-ethoxy-2-[2-(4-piperidyl)ethyl]-N-propyl-6H-thieno[3,2-b]azepine-7-carboxamide]: the EC50 on human TLR7 was determined as 915 nM; on human TLR8, 249 nM.

Turning to `CCCN(OCC)C(=O)C1=Cc2sc(CN3CC(CNC(=O)OC(C)(C)C)C3)cc2N=C(N)C1` [TAZ-210], the EC50 at human TLR7 was found to be 1550 nM; at human TLR8, 2940 nM.

As for `CCCN(CCC)C(=O)C1=Cc2sc(CCCCNC(=O)OC(C)(C)C)cc2N=C(N)C1` [TAZ-36], the 50% effective concentration (EC50) at human TLR7 was 8520 nM; at human TLR8, greater than 9000 nM.

As to `CCCN(CC12CC(CN)(C1)C2)C(=O)C1=Cc2sccc2N=C(N)C1` [TAZ-41], the EC50 on human TLR7 and at human TLR8 was greater than 9000 nM throughout.

Consider `CCCN(CCC)C(=O)C1=Cc2sc(S(=O)(=O)NCCCNC(=O)OC(C)(C)C)cc2N=C(N)C1` [TAZ-55], for which the EC50 at human TLR7 and at human TLR8 was greater than 9000 nM in each case.

As to `CCCN(CCc1ccc(OC)cc1)C(=O)C1=Cc2sc(CCCCCNC(=O)OC(C)(C)C)cc2N=C(N)C1` [TAZ-106], the EC50 was 4730 nM at human TLR7 and greater than 9000 nM at human TLR8.

On to `CCCN(Cc1ccc(CNC(=O)CCOC)cc1)C(=O)C1=Cc2sccc2N=C(N)C1` [TAZ-46], for which the EC50 at human TLR7 is greater than 9000 nM; on human TLR8, 1580 nM.

With `CCCNN(CC)C(=O)C1=Cc2sccc2N=C(N)C1` [TAZ-86], the EC50 on human TLR7 is greater than 9000 nM; at human TLR8, 4920 nM.

`CCCN(CCC)C(=O)C1=Cc2sc(C#CCCCNC(=O)OC(C)(C)C)cc2N=C(N)C1` [TAZ-6, tert-butyl N-[5-[5-amino-7-(dipropylcarbamoyl)-6H-thieno[3,2-b]azepin-2-yl]pent-4-ynyl] carbamate]: the EC50 on human TLR7 and on human TLR8 was greater than 9000 nM each time.

With `CCCN(OCC)C(=O)C1=Cc2sc(CN3CC(C(=O)OC(C)(C)C)C3)cc2N=C(N)C1` [TAZ-212], the EC50 was found to be 1260 nM at human TLR7 and 2540 nM on human TLR8.

Consider `CCCN(CCCNC(=O)OC(C)(C)C)C(=O)C1=Cc2sc(CCCCCN)cc2N=C(N)C1` [TAZ-133, tert-butyl (3-(5-amino-2-(5-aminopentyl)-N-propyl-6H-thieno[3,2-b]azepine-7-carboxamido)propyl)carbamate], for which the EC50 at human TLR7 came to 586 nM; on human TLR8 it was 3010 nM.

With `CCCN(OCC)C(=O)C1=Cc2sc(CN3CCCN(C(=O)OC(C)(C)C)CC3)cc2N=C(N)C1` [TAZ-226], the EC50 came out at 436 nM on human TLR7 and 4430 nM at human TLR8.

In the case of `CCCN(CCCNC(=O)OC1CCC1)C(=O)C1=Cc2sc(CN3CCC(Nc4ccc(CN)cc4)C3)cc2N=C(N)C1` (centres unmarked) [TAZ-190], the concentration giving a half-maximal response (EC50) at human TLR7 was determined as 2990 nM; on human TLR8, 4800 nM.

Regarding `CCCN(Cc1ccc(CN2CCN(C(=O)OC(C)(C)C)CC2)cc1)C(=O)C1=Cc2sccc2N=C(N)C1` [TAZ-34], the figures for the EC50 on human TLR7 and at human TLR8 were greater than 9000 nM and 339 nM, respectively.

Take `CCCN(Cc1ccc(CN(C)C)cc1C(F)(F)F)C(=O)C1=Cc2sc(CCCCCN)cc2N=C(N)C1` [TAZ-144]: the EC50 on human TLR7 was 1280 nM; on human TLR8 it was 2860 nM.

For `CCCN(CC#CCNC(=O)OC(C)(C)C)C(=O)C1=Cc2sc(Br)cc2N=C(N)C1` [TAZ-10, tert-butyl N-[4-[(5-amino-2-bromo-6H-thieno[3,2-b]azepine-7-carbonyl)-propyl-amino]but-2-ynyl]carbamate], the half-maximal effective concentration (EC50) at human TLR7 is 7770 nM.

As to `CN(C)Cc1ccc(CN(CCC(F)(F)F)C(=O)C2=Cc3sc(CCCCCNC(=O)OC(C)(C)C)cc3N=C(N)C2)cc1` [TAZ-116], at human TLR7, the EC50 was determined as 1620 nM.
